For experiment [1], the target named is 5-hydroxytryptamine receptor 2A (Mus musculus, UniProt P35363). It counts as functional, cell-based.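 Further: CHO-K1 cells with tagged receptor and beta-arrestin; agonist potency measured as compound-induced activation of the receptor.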
Experiment [2] has as its target FAD-linked sulfhydryl oxidase ALR (Homo sapiens, UniProt P55789). Nature of the experiment: ALR-catalysed DTT oxidation blockers – biochemical, H2O2 detection, luminescence, cherry-pick, dose response (AID 493248).
A further experiment deals with Mu-type opioid receptor (Homo sapiens, UniProt P35372). It counts as functional, cell-based.
Mu-type opioid receptor, sequence (P35372 whole entry): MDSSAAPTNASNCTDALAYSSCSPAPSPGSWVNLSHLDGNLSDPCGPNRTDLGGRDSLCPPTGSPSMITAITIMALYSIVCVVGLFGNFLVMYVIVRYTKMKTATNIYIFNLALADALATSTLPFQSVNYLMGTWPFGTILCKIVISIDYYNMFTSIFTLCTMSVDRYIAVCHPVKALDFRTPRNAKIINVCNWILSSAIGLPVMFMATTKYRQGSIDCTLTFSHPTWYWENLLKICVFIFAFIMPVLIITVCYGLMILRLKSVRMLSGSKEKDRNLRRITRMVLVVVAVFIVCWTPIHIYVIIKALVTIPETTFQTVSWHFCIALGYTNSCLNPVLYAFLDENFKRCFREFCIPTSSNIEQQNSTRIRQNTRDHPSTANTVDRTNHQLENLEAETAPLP
For experiment [3], the target named is T1, Small ubiquitin-related modifier 1 (Homo sapiens, UniProt P63165). Nature of the experiment: SUMO1 protein interaction blockers, potency – biochemical, fluorescence polarization, uHTS hits, dose response (AID 624382). It counts as functional. As to conditions: read-out: IC50_Mean. On the technique in general: In fluorescence polarisation assays a small probe gives low polarisation when free and higher when bound to something large.
T1 sequence (P63165 whole entry): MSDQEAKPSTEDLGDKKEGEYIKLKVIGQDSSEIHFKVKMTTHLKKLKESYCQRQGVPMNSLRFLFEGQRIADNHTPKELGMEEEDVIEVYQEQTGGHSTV

The target of experiment [4] is T1, Small ubiquitin-related modifier 1. Nature of the experiment: SUMO1 protein-protein binding blockers, potency – biochemical, FRET, dose response (AID 624383). It counts as functional. The settings on record: read-out: IC50_Mean.
Experiment [5] deals with T2, Small ubiquitin-related modifier 2 (Homo sapiens, UniProt P61956). The experiment is described as follows: disruption of SUMO2 interaction with SIM peptide – biochemical, fluorescence polarization, uHTS hits, selectivity assay for SUMO1 interaction inhibitor project, dose response (AID 624385). It is filed as functional. The settings on record: read-out: IC50_Mean.
T2 sequence (P61956 whole entry): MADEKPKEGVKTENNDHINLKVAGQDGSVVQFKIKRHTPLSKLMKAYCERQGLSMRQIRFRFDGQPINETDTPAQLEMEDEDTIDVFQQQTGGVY
The target of experiment [6] is T3, Probable nicotinate-nucleotide adenylyltransferase (Staphylococcus aureus (strain N315), UniProt P65502). It counts as functional, Staphylococcus aureus subsp. aureus N315.
T3 sequence (P65502 whole entry): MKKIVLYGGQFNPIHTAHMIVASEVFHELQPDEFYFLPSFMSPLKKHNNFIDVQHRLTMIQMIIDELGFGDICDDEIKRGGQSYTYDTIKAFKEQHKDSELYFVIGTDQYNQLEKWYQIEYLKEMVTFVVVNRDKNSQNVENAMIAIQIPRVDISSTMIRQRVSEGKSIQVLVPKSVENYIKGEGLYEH
Experiment [7] concerns the target T4, Polyadenylate-binding protein 1 (Homo sapiens, UniProt P11940). Nature of the experiment: MLLE binding blockers, Cy5 peptide tracer – biochemical, fluorescence polarization, Cy5-PAM2 peptide, secondary, miRNA deadenylation inhibitor project, dose response (AID 602260). It is filed as functional. As to conditions: read-out: IC50_Mean.
Experiment [8] has as its target T4, Polyadenylate-binding protein 1. The experiment is described as follows: MLLE domain peptide-binding blockers, IC50 – biochemical, fluorescence polarization, FITC-PAM2 peptide, dose response (AID 602259). It is filed as functional. The settings on record: read-out: IC50_Mean.
In experiment [9] the target is T3, Probable nicotinate-nucleotide adenylyltransferase. It counts as functional, Staphylococcus aureus subsp. aureus N315. The settings on record: read-out: IC50_Mean.
The target of experiment [10] is T2, Small ubiquitin-related modifier 2. The experiment is described as follows: SUMO2 binding disruption by SUMO1 hits – biochemical, FRET, human SUMO2, uHTS hits, selectivity assay for SUMO1 interaction inhibitor project, dose response (AID 624384). As to conditions: read-out: IC50_Mean. It counts as functional.
Experiment [11] concerns HEK293. Nature of the experiment: cells. It counts as functional, cell-based. As to conditions: Homo sapiens.
The next experiment has as its target Nonstructural protein 1 (Influenza A virus, UniProt Q194T2). It is filed as functional, Influenza A virus (A/California/07/2009(H1N1)).
Experiment [12] relates to HEK293. Nature of the experiment: NOD2 signaling inhibitors in MDP-stimulated cells, cell-based, uHTS, luminescence (AID 2001). As to conditions: Homo sapiens. It is filed as functional.
Experiment [13] has as its target T5, Heat shock factor protein 1 (Mus musculus, UniProt P38532).
T5 sequence (P38532 whole entry): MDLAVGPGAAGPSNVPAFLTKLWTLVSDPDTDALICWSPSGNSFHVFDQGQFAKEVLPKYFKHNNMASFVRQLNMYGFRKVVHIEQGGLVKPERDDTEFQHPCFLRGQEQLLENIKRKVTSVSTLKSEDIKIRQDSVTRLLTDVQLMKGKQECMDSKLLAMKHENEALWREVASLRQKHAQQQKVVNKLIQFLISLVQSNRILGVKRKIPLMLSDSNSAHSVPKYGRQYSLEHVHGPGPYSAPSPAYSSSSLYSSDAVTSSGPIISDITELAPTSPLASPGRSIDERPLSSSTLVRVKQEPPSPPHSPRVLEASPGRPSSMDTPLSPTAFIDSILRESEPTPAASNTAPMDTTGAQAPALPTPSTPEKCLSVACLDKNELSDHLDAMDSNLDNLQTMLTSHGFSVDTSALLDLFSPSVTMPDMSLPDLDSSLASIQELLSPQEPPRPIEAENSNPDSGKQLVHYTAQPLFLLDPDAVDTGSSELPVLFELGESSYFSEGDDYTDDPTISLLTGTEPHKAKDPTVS
Nature of the experiment: decrease of HSF1-responsive luciferase luminescence – cell-based, NIH3T3, dose retest, confirmation (AID 2382).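 Further: NIH3T3 fibroblasts with HSF1-driven luciferase reporter stressed by proteasome inhibitor MG132; luminescence from HSF1-driven luciferase expression after 8 hours of MG132 stress.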 It is filed as functional.

Experiment [14] deals with HEK293. Nature of the experiment: inhibition of NOD1-driven NF-kB reporter – cell-based, luminescence, uHTS, primary screen (AID 1578). It is filed as functional. As to conditions: Homo sapiens.
Experiment [15] deals with HEK293. Nature of the experiment: cells. It counts as functional, cell-based. As to conditions: Homo sapiens. This is another data set of the same source.
For experiment [16], the target named is Photoreceptor-specific nuclear receptor (Homo sapiens, UniProt Q9Y5X4). It is filed as functional, cell-based.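 Further: CHO-S cells with Gal4-NCOR and VP16-NR2E3 two-hybrid luciferase reporter.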
Photoreceptor-specific nuclear receptor, sequence (Q9Y5X4 whole entry, the tested form may be a part): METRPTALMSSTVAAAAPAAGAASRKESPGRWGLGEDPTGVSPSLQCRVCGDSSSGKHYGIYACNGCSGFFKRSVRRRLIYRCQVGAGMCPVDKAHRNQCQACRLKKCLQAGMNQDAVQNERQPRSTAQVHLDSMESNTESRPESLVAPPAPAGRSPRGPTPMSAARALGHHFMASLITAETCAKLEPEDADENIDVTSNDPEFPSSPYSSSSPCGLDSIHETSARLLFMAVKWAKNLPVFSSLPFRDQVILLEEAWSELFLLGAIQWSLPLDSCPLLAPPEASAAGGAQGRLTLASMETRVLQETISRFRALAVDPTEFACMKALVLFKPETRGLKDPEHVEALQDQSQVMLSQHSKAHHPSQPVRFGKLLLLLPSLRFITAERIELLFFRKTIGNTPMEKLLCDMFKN
The target in experiment [17] is T6, Low molecular weight phosphotyrosine protein phosphatase (Homo sapiens, UniProt P24666).
T6 sequence (P24666 whole entry): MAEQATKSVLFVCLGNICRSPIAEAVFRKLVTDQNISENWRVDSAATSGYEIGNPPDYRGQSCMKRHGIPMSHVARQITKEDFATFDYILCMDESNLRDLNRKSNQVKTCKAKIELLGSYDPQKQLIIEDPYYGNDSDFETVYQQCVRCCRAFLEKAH
It is filed as functional. As to conditions: read-out: IC50_Mean.

The target in experiment [18] is T6, Low molecular weight phosphotyrosine protein phosphatase. It is filed as functional. As to conditions: read-out: IC50_Mean. This is another data set of the same source.
The nature of experiment [19]: Fluorescence-based cell-based high throughput dose response assay for inhibitors of the interaction of nucleotide-binding oligomerization domain containing 2 (NOD2) and the receptor-interacting serine-threonine kinase 2 (RIPK2). As to conditions: Homo sapiens. It is filed as functional.
For experiment [20], the target named is Botulinum neurotoxin type F (Clostridium botulinum, UniProt P30996). Nature of the experiment: High-throughput multiplex microsphere dose response for inhibitors of toxin protease, specifically Botulinum neurotoxin light chain F protease, compounds from Cherry Pick 02. As to conditions: read-out: EC50_MICROM. It is filed as functional.
Botulinum neurotoxin type F, sequence (P30996 1-436 limits assumed): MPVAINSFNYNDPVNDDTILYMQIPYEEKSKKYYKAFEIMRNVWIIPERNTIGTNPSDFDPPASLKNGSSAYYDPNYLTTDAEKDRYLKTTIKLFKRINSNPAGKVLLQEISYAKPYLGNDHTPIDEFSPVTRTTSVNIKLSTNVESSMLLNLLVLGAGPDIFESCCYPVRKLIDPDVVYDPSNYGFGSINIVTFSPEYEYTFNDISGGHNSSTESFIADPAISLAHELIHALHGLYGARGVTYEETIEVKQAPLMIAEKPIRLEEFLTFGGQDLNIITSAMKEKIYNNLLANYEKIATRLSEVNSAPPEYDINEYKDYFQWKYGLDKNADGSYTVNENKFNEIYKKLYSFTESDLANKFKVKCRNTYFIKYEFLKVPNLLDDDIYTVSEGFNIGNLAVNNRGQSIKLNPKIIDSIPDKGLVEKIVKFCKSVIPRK
Experiment [21] can be described thus: intracellular Trypanosoma cruzi inhibitors in host cells – cell-based, plate reader, cherry-pick samples, set 3, dose response (AID 651818).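 Further: compounds incubated with infected cells for about four days.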 It is filed as functional.
Experiment [22] in a line: mouse fibroblast viability loss – cell-based, cherry-pick samples, set 2, cytotoxicity control for T. cruzi growth inhibitor project, dose response (AID 651817). It counts as functional. The settings on record: NIH3T3.
A short description of experiment [23]: inhibitors of EBV LMP1 NF-kappaB signaling – cell-based, luciferase reporter, luminescence, dry powder, set 2, dose response (AID 624376). It is filed as functional. A general note: In a reporter assay the amount or activity of a reporter protein is the signal.
Experiment [24] addresses T7, Sentrin-specific protease 1 (Homo sapiens, UniProt Q9P0U3). The experiment is described as follows: SENP1 catalytic domain blockers, concentration series – biochemical, kinetic FRET, dose response (AID 651697). It is filed as functional. As to conditions: read-out: IC50_Mean.
For experiment [25], the target named is T7, Sentrin-specific protease 1. The experiment is described as follows: Dose response confirmation of small molecule inhibitors of the catalytic domain of the SUMO protease, SENP1 in a FRET assay. It counts as functional. As to conditions: read-out: IC50_Mean.
The target of experiment [26] is T8, Rac GTPase-activating protein 1 (Homo sapiens, UniProt Q9H0H5).
T8 sequence (Q9H0H5 whole entry): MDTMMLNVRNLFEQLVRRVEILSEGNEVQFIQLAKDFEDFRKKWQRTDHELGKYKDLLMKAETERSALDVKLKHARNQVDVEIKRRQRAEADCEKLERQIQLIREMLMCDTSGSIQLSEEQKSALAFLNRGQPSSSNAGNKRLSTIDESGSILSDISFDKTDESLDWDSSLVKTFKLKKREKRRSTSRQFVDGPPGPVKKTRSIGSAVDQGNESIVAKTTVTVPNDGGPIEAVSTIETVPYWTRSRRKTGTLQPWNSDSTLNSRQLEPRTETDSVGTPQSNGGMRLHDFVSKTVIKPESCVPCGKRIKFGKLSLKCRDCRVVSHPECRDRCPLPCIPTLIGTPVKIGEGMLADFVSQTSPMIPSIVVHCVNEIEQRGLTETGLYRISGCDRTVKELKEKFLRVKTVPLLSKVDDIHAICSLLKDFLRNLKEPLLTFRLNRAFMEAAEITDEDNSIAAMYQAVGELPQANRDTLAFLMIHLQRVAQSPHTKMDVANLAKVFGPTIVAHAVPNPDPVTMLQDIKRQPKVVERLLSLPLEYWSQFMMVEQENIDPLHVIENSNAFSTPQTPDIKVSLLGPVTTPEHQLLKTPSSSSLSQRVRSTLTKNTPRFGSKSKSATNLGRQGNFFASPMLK
Nature of the experiment: blockers of MgcRacGAP-driven Rac1 GTP hydrolysis – biochemical, ADP Hunter fluorescence, primary and confirmatory, confirmation (AID 624330). It counts as functional.

The target of experiment [27] is Arf-GAP with SH3 domain, ANK repeat and PH domain-containing protein 1 (Homo sapiens, UniProt Q9ULH1). It counts as functional.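 Further: biochemical fluorescence polarization dose–response screen measuring inhibition of ASAP1; ASAP1 GAP domain stimulating GTP hydrolysis by truncated human ARF1.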
Arf-GAP with SH3 domain, ANK repeat and PH domain-containing protein 1, sequence (Q9ULH1 whole entry, the tested form may be a part): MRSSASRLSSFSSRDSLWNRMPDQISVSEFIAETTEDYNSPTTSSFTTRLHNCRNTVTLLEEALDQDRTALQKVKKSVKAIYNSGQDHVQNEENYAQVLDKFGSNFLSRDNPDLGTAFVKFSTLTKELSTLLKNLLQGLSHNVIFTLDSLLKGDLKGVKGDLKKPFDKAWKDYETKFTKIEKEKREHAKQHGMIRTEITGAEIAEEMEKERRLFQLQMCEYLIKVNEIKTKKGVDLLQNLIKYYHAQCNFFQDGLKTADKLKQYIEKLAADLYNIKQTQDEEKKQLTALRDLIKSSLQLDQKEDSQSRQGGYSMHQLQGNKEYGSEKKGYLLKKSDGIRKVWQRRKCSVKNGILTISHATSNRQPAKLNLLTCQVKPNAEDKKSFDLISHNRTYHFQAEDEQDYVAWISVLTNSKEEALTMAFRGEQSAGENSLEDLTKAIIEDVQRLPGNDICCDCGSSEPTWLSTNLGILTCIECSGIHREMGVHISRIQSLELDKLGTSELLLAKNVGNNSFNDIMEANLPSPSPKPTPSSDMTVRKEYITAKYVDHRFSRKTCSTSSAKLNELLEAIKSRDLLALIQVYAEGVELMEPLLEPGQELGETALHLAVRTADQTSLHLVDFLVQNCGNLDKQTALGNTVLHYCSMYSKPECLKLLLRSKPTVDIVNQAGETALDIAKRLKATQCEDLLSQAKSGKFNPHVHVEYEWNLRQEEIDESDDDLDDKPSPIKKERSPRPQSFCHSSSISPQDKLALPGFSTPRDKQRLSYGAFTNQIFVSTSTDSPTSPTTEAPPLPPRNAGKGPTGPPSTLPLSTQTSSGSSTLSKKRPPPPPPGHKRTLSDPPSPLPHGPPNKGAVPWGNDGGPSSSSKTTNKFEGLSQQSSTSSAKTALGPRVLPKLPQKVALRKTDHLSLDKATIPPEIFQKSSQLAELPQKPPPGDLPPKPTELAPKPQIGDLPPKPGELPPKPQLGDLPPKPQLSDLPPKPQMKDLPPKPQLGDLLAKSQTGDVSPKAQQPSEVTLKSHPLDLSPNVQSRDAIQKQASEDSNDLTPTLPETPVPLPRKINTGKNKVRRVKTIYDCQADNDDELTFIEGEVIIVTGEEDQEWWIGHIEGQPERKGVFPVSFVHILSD
Experiment [28] deals with T9, DNA repair protein RAD52 homolog (Homo sapiens, UniProt P43351).
T9 sequence (P43351 whole entry): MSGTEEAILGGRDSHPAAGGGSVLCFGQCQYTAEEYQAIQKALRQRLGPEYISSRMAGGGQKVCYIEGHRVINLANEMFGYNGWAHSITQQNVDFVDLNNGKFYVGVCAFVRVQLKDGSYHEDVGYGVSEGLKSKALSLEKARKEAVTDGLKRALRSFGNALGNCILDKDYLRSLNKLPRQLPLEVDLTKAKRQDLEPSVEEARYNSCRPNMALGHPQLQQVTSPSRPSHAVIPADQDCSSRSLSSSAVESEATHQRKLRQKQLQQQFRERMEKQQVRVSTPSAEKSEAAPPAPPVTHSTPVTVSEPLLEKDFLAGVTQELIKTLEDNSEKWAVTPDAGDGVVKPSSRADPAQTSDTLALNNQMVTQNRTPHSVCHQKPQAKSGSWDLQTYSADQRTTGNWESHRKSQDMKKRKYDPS
It is filed as functional, biochemical.

Experiment [29] in a line: viability loss in HeLa cells – cytotoxicity control for MgcRacGAP inhibitor project, dose response (AID 624300). It counts as functional.

SMILES strings stand for the structures. Activity calls are given as the source filed them.

T4 sequence (P11940 whole entry, the tested form may be a part): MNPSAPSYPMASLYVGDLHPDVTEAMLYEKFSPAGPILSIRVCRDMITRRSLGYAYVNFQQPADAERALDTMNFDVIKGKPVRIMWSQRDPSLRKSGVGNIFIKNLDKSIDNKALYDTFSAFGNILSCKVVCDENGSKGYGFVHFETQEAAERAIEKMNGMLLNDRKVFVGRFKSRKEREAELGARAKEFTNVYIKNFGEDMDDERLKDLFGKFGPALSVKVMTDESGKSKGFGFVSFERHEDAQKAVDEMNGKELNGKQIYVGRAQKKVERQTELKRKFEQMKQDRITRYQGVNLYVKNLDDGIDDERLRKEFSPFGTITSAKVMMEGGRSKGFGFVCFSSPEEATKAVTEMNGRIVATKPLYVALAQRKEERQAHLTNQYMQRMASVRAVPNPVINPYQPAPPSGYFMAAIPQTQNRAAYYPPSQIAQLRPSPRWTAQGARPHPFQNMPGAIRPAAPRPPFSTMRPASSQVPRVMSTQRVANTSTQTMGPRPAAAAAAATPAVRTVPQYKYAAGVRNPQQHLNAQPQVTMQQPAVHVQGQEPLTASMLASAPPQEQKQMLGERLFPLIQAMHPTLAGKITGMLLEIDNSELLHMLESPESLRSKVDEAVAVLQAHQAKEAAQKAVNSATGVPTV
T7 sequence (Q9P0U3 whole entry, the tested form may be a part): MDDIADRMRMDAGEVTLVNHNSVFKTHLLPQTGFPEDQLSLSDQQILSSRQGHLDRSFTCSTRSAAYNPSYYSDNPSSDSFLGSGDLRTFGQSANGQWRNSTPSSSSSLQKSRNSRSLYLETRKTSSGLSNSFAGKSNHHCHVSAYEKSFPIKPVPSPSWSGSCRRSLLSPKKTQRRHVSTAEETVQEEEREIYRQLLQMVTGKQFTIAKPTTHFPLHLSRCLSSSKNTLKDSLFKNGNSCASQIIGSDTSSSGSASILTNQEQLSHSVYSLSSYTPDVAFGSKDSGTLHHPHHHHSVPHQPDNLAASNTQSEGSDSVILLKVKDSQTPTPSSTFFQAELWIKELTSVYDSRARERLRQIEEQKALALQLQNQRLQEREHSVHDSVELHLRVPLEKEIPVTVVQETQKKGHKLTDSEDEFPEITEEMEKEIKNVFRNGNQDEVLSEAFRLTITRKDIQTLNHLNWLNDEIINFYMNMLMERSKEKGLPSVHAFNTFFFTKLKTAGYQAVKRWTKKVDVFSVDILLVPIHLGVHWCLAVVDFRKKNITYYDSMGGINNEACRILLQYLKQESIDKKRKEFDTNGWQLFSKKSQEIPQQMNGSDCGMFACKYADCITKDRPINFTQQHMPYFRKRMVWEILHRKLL
Nonstructural protein 1, sequence (Q194T2 whole entry): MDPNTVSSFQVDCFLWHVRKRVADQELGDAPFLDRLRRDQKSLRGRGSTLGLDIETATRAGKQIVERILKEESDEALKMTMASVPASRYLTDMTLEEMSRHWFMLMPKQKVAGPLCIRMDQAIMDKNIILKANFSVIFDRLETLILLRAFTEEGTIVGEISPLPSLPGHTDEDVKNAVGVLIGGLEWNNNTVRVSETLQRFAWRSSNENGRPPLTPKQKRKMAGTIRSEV
FAD-linked sulfhydryl oxidase ALR, sequence (P55789 whole entry): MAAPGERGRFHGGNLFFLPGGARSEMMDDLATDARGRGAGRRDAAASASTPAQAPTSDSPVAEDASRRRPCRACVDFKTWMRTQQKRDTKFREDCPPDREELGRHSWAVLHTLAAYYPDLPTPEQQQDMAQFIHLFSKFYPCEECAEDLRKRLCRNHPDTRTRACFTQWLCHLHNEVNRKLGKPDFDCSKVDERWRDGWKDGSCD
5-hydroxytryptamine receptor 2A, sequence (P35363 whole entry): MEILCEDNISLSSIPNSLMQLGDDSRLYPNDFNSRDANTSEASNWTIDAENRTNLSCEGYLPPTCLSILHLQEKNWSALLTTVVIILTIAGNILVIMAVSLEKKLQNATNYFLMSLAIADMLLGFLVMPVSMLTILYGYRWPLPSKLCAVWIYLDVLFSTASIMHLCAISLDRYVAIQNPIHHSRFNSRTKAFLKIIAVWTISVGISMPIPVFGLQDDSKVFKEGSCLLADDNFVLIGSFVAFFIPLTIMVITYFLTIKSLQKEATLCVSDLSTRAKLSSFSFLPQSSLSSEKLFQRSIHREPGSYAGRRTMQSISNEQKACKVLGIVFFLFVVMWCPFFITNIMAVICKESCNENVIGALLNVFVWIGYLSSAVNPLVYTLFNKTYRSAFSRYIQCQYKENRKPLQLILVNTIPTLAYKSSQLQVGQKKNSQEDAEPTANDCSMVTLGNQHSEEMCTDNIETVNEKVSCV

For the compound `CNCCc1ccc(O)c(O)c1`, the EC50 was 0.0874 µM (active) in experiment [1] and 92.3 µM (inactive) on Mu-type opioid receptor. In addition, in [2], the AC50 was 4.11 µM (active).
`O=C(Nc1ccc2nc(-c3ccco3)c(-c3ccco3)nc2c1)N1CCN(c2ccccn2)CC1`: the IC50 in experiment [3] was 6.94 µM (active); in experiment [4] it was 51.7 µM (inactive); in experiment [5] it was 8.13 µM (active); in experiment [6], 8.98 µM (active); in experiment [7], > 66 µM (inactive); in experiment [8], > 66 µM (inactive). For the same compound, the IC50 is 19.7 µM (active) in experiment [9] and 24.6 µM (inactive) in experiment [10].
With `CCOc1ccc(-c2nc(CSCC(=O)N3CCN(c4cccc(OC)c4)CC3)c(C)o2)cc1`, the IC50 was 8.52 µM (active) in the experiment on HEK293 [11]; > 100 µM (active) at Nonstructural protein 1; 5.09 µM (active) with HEK293 [12]; 4.42 µM (active) in the experiment with HEK293 [15]; 4 µM (active) in [16]. The EC50 in experiment [13] is 48 µM (active); with HEK293 [14], 5.87 µM (active).
Turning to `O=C(CCCOc1ccc(Cl)cc1Cl)NNC(=O)c1ccc(NC(=O)c2ccccc2)cc1`, the IC50 in [17] is 8.44 µM (active); in experiment [18], 11.2 µM (active).
`C=CC(=O)N1C/C(=C/c2ccccc2)C(=O)/C(=C\c2ccccc2)C1`: in experiment [19], the IC50 is 3.66 µM (active).
For `Cc1ccc(-c2nc3cc(C)c(Br)c(C)n3c2Cc2cccc(Cl)c2)cc1`, the EC50 in [20] is > 20 µM (inactive).
`C[C@H]1CN([C@@H](C)CO)C(=O)c2cccc(NC(=O)c3nc4ccccc4s3)c2O[C@H]1CN(C)S(=O)(=O)c1ccccc1`: the AC50 in experiment [21] is 2.55 µM (active); in experiment [22], 39 µM (inactive).
Turning to `C[C@@H]1CN([C@@H](C)CO)C(=O)Cc2cc(NC(=O)Cc3ccccc3)ccc2O[C@H]1CN(C)Cc1ccc(C(F)(F)F)cc1`, in experiment [23], the AbsAC35 came out at 115.61 µM.
For `O=C(O)c1ccc(N/N=C/c2cccc3nccnc23)cc1`, the IC50 was 15.1 µM (active) in [24] and 8.97 µM (active) in experiment [25].
Turning to `C[n+]1c(-c2ccc(C=NNC(=O)c3ccc(C(=O)NN=Cc4ccc(-c5cn6ccccc6[n+]5C)cc4)cc3)cc2)cn2ccccc21`, the IC50 in experiment [26] is 66.4 µM (active); in [27] it was 22.3 µM (inactive). The AC50 in experiment [28] is 1.52 µM (active). For the same compound, in experiment [29], the CC50 was 100 µM (active).

In general, AC50 refers to the midpoint of the concentration-response curve, whichever way the signal moves. The CC50 is the concentration giving 50% cytotoxicity.
